IC50 and Ki data for one compound are collected here from patent US12528812B2 (Genentech, Inc., priority 2020, dated 2026).

pIC50, pKi: −log10 of the molar value.

Experiment [1] has as its system IL-13-stimulated STAT6 phosphorylation in human lung bronchial epithelial BEAS-2B cell line. The experiment can be described thus: P-STAT6 BEAS-2B + IL-13 cell assay. Type of experiment: cell-based. Particulars: Homo sapiens, BEAS-2B, BEAS2B cells, IL13 stimulation; read-out: Cellular JAK1 PSTAT6 BEAS2B + IL13. The method in brief:
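BEAS-2B cells grown 48 h at 37 °C, pre-treated 1 h with compound (10-point 1:2 dilution curve), then stimulated 15 min with human recombinant IL-13 (250 ng/mL stock). Lysate P-STAT6 (Tyr641) read by MSD sandwich ELISA with total-STAT6 capture; IC50 from four-parameter logistic fit of control-normalised data.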

In experiment [2] the target is T1, recombinant human JAK1 kinase domain protein (Residues 854-1154) (Homo sapiens, UniProt P23458).
T1 construct: human JAK1 kinase domain protein (Residues 854-1154); purchased Proteros Biostructures GmbH (Martinsried, Germany); host or cells: insect cells
T1 sequence (P23458 854-1154): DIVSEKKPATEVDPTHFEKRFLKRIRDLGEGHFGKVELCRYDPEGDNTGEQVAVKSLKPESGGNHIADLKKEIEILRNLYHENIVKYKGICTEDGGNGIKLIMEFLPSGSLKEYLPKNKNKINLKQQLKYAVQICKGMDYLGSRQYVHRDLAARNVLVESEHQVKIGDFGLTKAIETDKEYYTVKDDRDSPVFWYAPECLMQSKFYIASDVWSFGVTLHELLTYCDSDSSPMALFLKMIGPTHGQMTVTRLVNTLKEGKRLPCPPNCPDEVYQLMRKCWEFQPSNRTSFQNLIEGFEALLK
The experiment can be described thus: JAK1 biochemical assay (LabChip mobility shift, Ki). Particulars: read-out: Biochem JAK1 Ki.

Experiment [3] has as its system IL-13-stimulated P-STAT6 in TF-1 human erythroleukemia cells. Put plainly: P-STAT6 TF-1 + IL-13 assay (JAK1 pathway). Type of experiment: cell-based. To be noted: Homo sapiens, TF-1, TF-1 cells, IL13 stimulation; read-out: Cellular JAK1 PSTAT6 TF-1 + IL13. As to the method:
(§1) TF-1 human erythroleukemia cells (ATCC′; Manassas, VA; Catalog No. CRL-2003™) were grown in Roswell Park Memorial Institute (RPMI) medium supplemented with 10% heat-inactivated fetal bovine serum (FBS), 2 ng/mL granulocyte-macrophage colony-stimulating factor, 1× non-essential amino acids (NEAA), and 1 mM sodium pyruvate. The day before the assay, the cultures were transferred to Opti-MEM™, 1×NEAA, 1 mM sodium pyruvate, and 0.5% charcoal-stripped FBS (starve medium). Inhibitor stock solutions (5 mM in DMSO) were serially diluted 1:2 in DMSO to generate a 10-point concentration titration (at 500× test concentration), which was further diluted by a 50-fold dilution in Assay Medium (RPMI containing 1×NEAA and 1 mM sodium pyruvate) to generate a 10× concentration titration (in 2% DMSO). The cells (300,000 cells/well in 35 μL of Assay Medium) were seeded in 384-well Greiner plates. Diluted inhibitor at 10× concentration (5 μL) was added to the cells and the plates were incubated for 30 minutes at 37° C. in a humidified incubator. Cells were stimulated with the human recombinant cytokine at the respective EC90 concentrations, as previously determined for each individual lot. For the phosphorylated signal transducer and activator of transcription 6 (P-STAT6) TF-1+Interleukin-13 (IL-13) assay, 10 μL of 250 ng/mL IL-13 (R&D Systems; Minneapolis, MN) was added to the cells, which were then incubated for 10 minutes at 37° C. For the P-STAT5 TF-1+Erythropoietin (EPO) assay, 10 μL of 110 IU/mL EPO (Gibco Life Technologies, Catalog No. PHC2054) was added to the cells, which were then incubated for […] at 37° C. For both assays, the incubation was followed by addition to the cells of 5 μL of ice-cold 10× cell lysis buffer (Cell Signaling Technologies; Danvers, MA; Catalog No. 9803S) containing 1 mM phenylmethylsulfonyl fluoride (PMSF). Assay plates were frozen at −80° C. for a minimum of 1 hour. In the IL-13 assay, P-STAT6 was measured by coating goat anti-rabbit (GAR) plates (Meso Scale Discovery [MSD]; Rockville, MD; Catalog No. MSD L21RA-1) with rabbit anti-human total STAT6 antibody (Cell Signaling Technologies; Catalog No. 9362S), incubating the cell lysates in the coated plates overnight at 4° C., and then detecting with mouse anti-P-STAT6 (Tyr641) Clone 16E12 antibody (MilliporeSigma; Burlington, MA; Catalog No. 05-590, custom labeled by MSD with SULFO-tag) using standard MSD plate processing, washing, and detection protocols. In the EPO assay, P-STAT5 was detected using the phospho-STAT5a,b Whole Cell Lysate Kit (MSD; Catalog No. K150IGD-1). The electrochemiluminescence (ECL) signal of wells was read on the MESO SECTOR 5600 (MSD) reader.
(§2) Data analysis was performed by subtracting the negative control (cytokine stimulated and 20 μM control inhibitor-treated cells) mean ECL value from the ECL value of all wells, determining percent of control for test compound well ECL values relative to the positive control (cytokine stimulated and DMSO-treated cells) mean ECL value, and determining the IC50 for test compounds with a four-parameter logistic fit model as shown in Equation 4.

Experiment [4] deals with Recombinant human JAK2 kinase domain protein (Residues 812-1132) (Homo sapiens, UniProt O60674). The experiment can be described thus: JAK2 biochemical assay (LabChip mobility shift, Ki). To be noted: Biochem JAK2 Ki.
Sequence of Recombinant human JAK2 kinase domain protein (Residues 812-1132) (O60674 812-1132): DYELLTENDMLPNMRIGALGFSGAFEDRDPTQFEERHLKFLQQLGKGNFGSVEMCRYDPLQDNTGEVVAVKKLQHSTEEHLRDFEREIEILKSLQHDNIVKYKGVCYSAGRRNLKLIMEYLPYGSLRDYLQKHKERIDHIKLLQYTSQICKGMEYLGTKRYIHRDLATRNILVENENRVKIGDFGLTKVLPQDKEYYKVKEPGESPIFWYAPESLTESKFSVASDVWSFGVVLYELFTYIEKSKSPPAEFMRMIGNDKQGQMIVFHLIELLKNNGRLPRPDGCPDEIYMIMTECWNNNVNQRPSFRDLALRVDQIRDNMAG
Experiment [5] relates to EPO-stimulated P-STAT5 in TF-1 human erythroleukemia cells. The experiment can be described thus: P-STAT5 TF-1 + EPO assay (JAK2 pathway). Type of experiment: cell-based. To be noted: Homo sapiens, TF-1, TF-1 cells, EPO stimulation; read-out: Cellular JAK2 PSTAT5 TF-1 + EPO. The protocol:
as §1, §2

In the case of `CC(C)N1CC(O)(Cn2cc(Oc3ccc(OC(F)F)c(-c4nn(C)cc4NC(=O)c4cnn5cccnc45)c3)cn2)C1` [Example 201, N-[3-[2-(difluoromethoxy)-5-[1-[(3-hydroxy-1-isopropyl-azetidin-3-yl)methyl]pyrazol-4-yl]oxy-phenyl]-1-methyl-pyrazol-4-yl]pyrazolo[1,5-a]pyrimidine-3-carboxamide], the values for the pIC50 in experiment [1], in experiment [3] and in experiment [5] were 7.47, 7.85 and 7.68, respectively. Moreover, the negative logarithm of the Ki (pKi) (commonly the Ki on a negative log10 scale, so that one unit is a factor of ten) is 9.34 in experiment [2] and 9.47 in experiment [4].
